Experimental data from patent publication US20040047863A1, “Combination therapy using a TNF binding protein for treating TNF-mediated diseases” (Amgen Inc., priority 1996, published 2004).

What was measured:
adjuvant arthritic rats [1] = test: Adjuvant-induced arthritis model, combination of sTNFR-II Fc and methotrexate (Example 2); format: in vivo, rat
Procedure: An animal model of rheumatoid arthritis induced by an adjuvant was used to investigate the combination therapy of a TNF binding protein and methotrexate in male Lewis rats (5-7/group) weighing at least 200 g.
On day-0, all rats were injected with 100 μl of Freunds Complete Adjuvant (Sigma Chemical Co., St. Louis, Mo.) to which a synthetic adjuvant, N,N-dioctyldecyldecyl-N′, N-bis(2-hydroxy-ethyl) propanediamine, 50 mg/ml, was added. On day 0-14 methotrexate in 1% carboxymethylcellulose (Sigma) was orally administered daily (0.06 mg/kg) to two groups of rats. On days 9, 11, and 13, CHO-derived sTNFR-II/hIgG1 fusion protein (sTNFR-II Fc; prepared generally in accordance with the teachings of EP 418 014) formulated in pharmaceutical composition (34 mM NaCl, 10 mM sodium phosphate, 4% sorbitol (w/v) in water; pH 6.5) was administered by subcutaneous infusion (18 mg/kg) to one group of rats being treated with both Freunds Complete Adjuvant and methotrexate and to another group of rats being treated with Freunds Complete Adjuvant alone.
Body weights were taken on day 0 and every other day from day 9 to termination on day 15. Caliper measurements and clinical scoring were done daily from day 9 until termination on day 15. At this time animal's body, paw and spleen weights were determined.

adjuvant arthritic rats [2] = test: Adjuvant-induced arthritis model, combination of c105 sTNFR-I dumbbell and methotrexate (Example 1); format: in vivo, rat
Procedure: An animal model of rheumatoid arthritis induced by an adjuvant was used to investigate the combination therapy of a TNF binding protein and methotrexate in male Lewis rats (3-7/group) weighing at least 200 g.
On day-0, all rats were injected with 100 μl of Freunds Complete Adjuvant (Sigma Chemical Co., St. Louis, Mo.) to which a synthetic adjuvant, N,N-dioctyldecyldecyl-N′, N-bis(2-hydroxy-ethyl) propanediamine, 50 mg/ml, was added. On days 0-14 methotrexate in 1% carboxymethylcellulose (Sigma) was orally administered daily (0.06 mg/kg) to two groups of rats. On days 8, 10, 12, and 14, E. coli-derived c105 sTNFR-I dimerized with PEG-20,000-bis-vinyl sulfone (c105 sTNFR-I dumbbell; prepared generally in accordance with the teachings of WO 95/34326) formulated in pharmaceutical composition (34 mM NaCl, 10 mM sodium phosphate, 4% sorbitol (w/v) in water; pH 6.5) was administered by subcutaneous (SC) injection (3 mg/kg) to one group of rats being treated with both Freunds Complete Adjuvant and methotrexate and to another group of rats being treated with Freunds Complete Adjuvant alone.
Body weights were taken on day 0 and every other day from day 9 to termination on day 15. Caliper measurements and clinical scoring were done on day 9 and every other day until termination. At this time animal's body, paw and spleen weights were determined.

[3] = system: MRL-1pr/1pr autoimmune mice challenged with LPS/D-GalNH2; test: LPS/D-Galactosamine induced lethality model (Example 3); format: in vivo, mouse; details: N=6
Procedure: The combination immunotherapeutic effects of c105 STNFR-I dumbbell and fas fusion protein were assessed using a mouse model of D-Galactosamine (D-GalNH2) induced lethality. The D-galactosamine (D-GalNH2)/Lipopolysaccharide (LPS) model (Mountz et al., J. Immunology, 155:4829-4837). In this model, MRL-1pr/1pr autoimmune mice are administered D-GalNH2 with bacterial endotoxin (LPS), and lethality is observed through +96 hours post challenge.
After overnight fasting, 6-8 week old female MRL-1pr/1pr mice (Jackson Laboratory, Bar Harbor, Me.) (5/7/group) were cannulated with jugular catheters and allowed to recover for several days. They were then placed in infusion cages and acclimated for a week prior initiating saline infusion.
At hour-0, all mice were injected intraperitoneally with 31 micrograms of D-GalNH2 (Sigma) suspended in Hank's Balanced Salt Solution (Gibco BRL) (120 micrograms/ml); and lipopolysaccharide (LPS) from E. coli Serotype 0127:B8 (Sigma) in sterile, endotoxin-free phosphate buffered saline (PBS) (6 micrograms/mouse).
At 0-hour-+2 hours post-challenge, fas fusion protein formulated in a pharmaceutical composition (Phosphate buffered saline (Gibco BRL, Grand Island, N.Y.)) was administered intravenously in serial 2-fold dilutions (microgram/kg dosages) to two groups of mice. […]

[4] = male Lewis rats, Freunds Complete Adjuvant, sTNFR-II Fc 18 mg/kg subcutaneous days 9, 11, 13, methotrexate 0.06 mg/kg oral daily days 0-14
[5] = final analysis (inhibition at termination, day 15), c105 sTNFR-I dumbbell 3 mg/kg SC, methotrexate 0.06 mg/kg oral daily
[6] = male Lewis rats, Freunds Complete Adjuvant, c105 sTNFR-I dumbbell 3 mg/kg SC days 8, 10, 12, 14, methotrexate 0.06 mg/kg oral daily days 0-14
[7] = male Lewis rats, Freunds Complete Adjuvant, c105 sTNFR-I dumbbell 3 mg/kg SC days 8, 10, 12, 14, methotrexate 0.06 mg/kg oral daily days 0-14, as reported with FIGS. 3 and 4

## N-[4-[(2,4diamino-6-pteridinyl)methylamino]benzoyl]-L-glutamic acid [methotrexate]
Adjuvant arthritic rats [1]; final analysis (inhibition at termination, day 15), sTNFR-II Fc 18 mg/kg, methotrexate 0.06 mg/kg oral daily
  inhibition of paw inflammation (terminal paw weights): 74%
Adjuvant arthritic rats [1]; [4]
  inhibition of body weight change: 64%
  inhibition of paw swelling (area under the curve—AUC): 66%
  inhibition of splenomegaly / spleen weight: 74%
Adjuvant arthritic rats [2]; [5]
  inhibition of body weight change: 3%
  inhibition of paw inflammation (terminal paw weights): 3.9%
  inhibition of splenomegaly (terminal spleen weights): 8.5%
Adjuvant arthritic rats [2]; [6]
  inhibition of paw swelling (area under the curve-AUC): 26%
Adjuvant arthritic rats [2]; [7]
  inhibition of body weight change: 3%
  inhibition of splenomegaly / spleen weight: no inhibition

B1: c105 sTNFR-I dumbbell: E. coli-derived c105 sTNFR-I dimerized with PEG-20,000-bis-vinyl sulfone (protein, UniProt P19438 30-211, looked up)
extracellular domain: LVPHLGDREKRDSVCPQGKYIHPQNNSICCTKCHKGTYLYNDCPGPGQDTDCRECESGSFTASENHLRHCLSCSKCRKEMGQVEISSCTVDRDTVCGCRKNQYRHYWSENLFQCFNCSLCLNGTVHLSCQEKQNTVCTCHAGFFLRENECVSCSNCKKSLECTKLCLPQIENVKGTEDSGTT
modifications: extracellular domain c105 truncation; PEG-20000-bis-vinyl sulfone dimer
notes: E. coli-derived c105 sTNFR-I dimerized with PEG-20,000-bis-vinyl sulfone
Adjuvant arthritic rats [2]; [5]
  inhibition of body weight change: 13.2%
  inhibition of paw inflammation (terminal paw weights): 10.9%
  inhibition of splenomegaly (terminal spleen weights): 30.4%
Adjuvant arthritic rats [2]; [6]
  inhibition of paw swelling (area under the curve-AUC): about 42%
Adjuvant arthritic rats [2]; [7]
  inhibition of body weight change: about 13.2%
  inhibition of splenomegaly / spleen weight: no significant benefit
[3]; c105 sTNFR-I dumbbell 100 micrograms/kg I.V., time=−1 hour before challenge, P<0.01 vs saline control
  survival: 100%
[3]; sub-optimal dose 25 micrograms/kg, through +96 hours after challenge
  protection: −35%
